Data as given in patent publication US20120149100A1, “CARDIOMYOCYTE CELL POPULATIONS” (Mount Sinai School of Medicine, priority 2005, published 2012).

Legend:
Ainv-Notch4 ES cells = experiment: Flow cytometric analysis for HA-Notch4 expression after induction; assay type: cell-based; conditions: one day following Dox 0.5 μg/ml induction
Procedure: Dissociated cells were incubated with biotinylated mAbs (against Flk-1, VE-cad, or CD41) in PBS containing 10% FCS on ice for 30 min. The cells were then washed once and incubated with streptavidin-PE-Cy5 (BD Pharmingen) for another 30 minutes on ice. Following an additional two washes, the cells were analyzed on a FACSCalibur flow cytometer (BectonDicldnson) or sorted on a Moflo cell sorter (Cytomation). For Troponin T or HA staining, cells were fixed in 4% paraformaldehyde (PFA) for 30 minutes and then incubated in a permeabilizing buffer consisting of PBS with 10% FCS and 0.1% saponin (Sigma) for 10 minutes. Following fixing and permeabilization, the cells were washed twice and incubated with an anti-Troponin T (unconjugated mouse antibody, Lab Vision) or anti-HA (conjugated with biotin, Covance) antibody for 30 minutes. After two washes, the cells were incubated with a secondary APC-conjugated goat anti-mouse antibody (for Troponin T antibody) or streptavidin-PE-Cy5 (for biotinylated HA antibody) for 30 minutes. Finally, the cells were washed twice with permeabilizing buffer and then twice with buffer without saponin. […] One day following Dox (0.5 μg/ml) induction, 90% of Ainv-Notch4 ES cells expressed Notch4 as determined by flow cytometric analysis for HA expression (FIG. 2A).

[1] = test system: BL-CFC in day 3.25 Flk-1+ cells; experiment: Blast colony (BL-CFC) assay; assay type: cell-based
Procedure: The blast and hematopoietic colony assays were performed as described Kennedy et al., (2003) Metods Enzymol. 365:39-59. Dox was added at 0.5 μg/ml to induce Notch4 expression and y-secretase inhibitor X (L685,458, Calbiochem) at 5 μM to blook Notch signaling in the:blast colony culture. To generate mixed hemangioblastkardiac colonies, blast colony growth was initiated in standard blast colony cultures containing Dox for 24 hours. The developing colonies were then washed from with methycellulose with IMDM containing 10% FCS to remove Dox. The colonies were recultured in blast colony metycellulose supplemented with Erythropoietin (2 U/ml) and IL-3 (1% conditioned medium). Mixed colonies containing an inner cardiac core surrounded by outer hematopoietic cells were picked for analysis at day 7.
To determine if the BL-CFC is the target of the Notch4-induced fate change, day 3.25 Flk-1^+ cells were cultured in the BL-CFC assay in the presence or absence of Dox. In the absence of Dox, this population generated typical blast colonies that appeared as grape-like clusters of cells. When cultured in the presence of Dox, these cells formed compact colonies of tightly packed cells that were easy to distinguish from the blast colonies (FIG. 5A). The number of these compact colonies was similar to the number of blast cell colonies that developed in the non-induced cultures (FIG. 5B). […] None of these colonies expressed gata-1. As shown previously, blast colonies expressed the endothelial genes as well as gata-1. […] With extended time in the methylcellulose cultures, some of the compact colonies generated contracting cells. To quantify the proportion of colonies that generated contracting cells, individual colonies were picked at day 7 of culture and replated in microtiter wells in the cardiac cultures. Approximately 70% of the compact colonies generated contracting cells between 2 and 7 days of culture. The contracting cells expressed cTnT, confirming that they were cardiomyocytes (FIG. 5D).

[2] = test system: Flk-1+ cells isolated from day 3.25 Ainv-Notch4 EBs; experiment: Cardiac assay of reaggregated Flk-1+ cells from Ainv-Notch4 EBs; assay type: cell-based
Procedure: (§1) Sorted cells were reaggregated for 24 hours in StemPro-34 serum-free medium (hwitrogen) containing 2 mM L-glutamine (GIBCO/BRL), transferrin (200 μg/ml), 0.5 mM ascorbic acid and 4.5×10^−4 M MTG at 3×10^5 cells per ml in ultra-low-attachment 24-well plates (Costar). Single aggregates or pools of aggregates were replated in gelatin-coated 96- or 24-well plates containing SternPro with 2 mM L-glutamine for cardiac culture. Following 2 to 4 days of culture the proportion of aggregates containing contracting cells was scored and the number of Troponin T-positive cells was evaluated by flow cytometric analyses. For the aggregated and cardiac cultures, doxycycline (Dox) was used at 0.5 μg/ml and γ-secretase inhibitor X at 5 μM (dissolved in DMSO). The same concentration of DMSO was added to the control cultures. Medium was changed everyday to provide fresh Dox and inhibitor.
To investigate the potential of Notch4 to initiate a cardiogenic program in this early stage of hemangioblast population, Flk-1^+ cells isolated from day 3.25 Ainv-Notch4 EBs were reaggregated for 24 hours in the presence or absence of Dox as described above. The resulting aggregates were then cultured in gelatin-coated microliter wells containing serum-free media (hereafter referred to as cardiac cultures). These conditions efficiently support cardiomyooyte development from cardiogenic mesoderm (Kouskoff et al. (2005) Proc. Natl. Acad. Sci. 102:13170-13175). Both single aggregates and pools of aggregates were cultured for 2-3 days. Following this maturation step, the cultures of single aggregates were scored for the presence of contracting cells indicative of cardiomyocyte differentiation. None of the aggregates generated in the absence of Dox (−Dox/−Dox) contained contracting cells (FIG. 3A). Rather, these aggregates underwent heniatopoietio differentiation as indicated by the development of hemoglobinized erythroid cells, an observation consistent with the hemangioblast potential of this population. […] (FIG. 3B, right panel). Few cTnT cells were atected among the adhesive cells generated from non-induced aggregates (FIG. 3B, left panel). Cultures of the pooled induced aggregates generated extensive areas of contracting cells. Contracting cells were not detected in the cultures of the non-induced aggregates. Flow cytometric analysis of the differentiated progeny from pooled inducedaggregates confirmed the dramatic cardiogenic effect of Notch4 as greater than 60% of the entire cell population expressed cTnT after 2 days in the cardiac cultures (+Dox/−Dox, FIG. 3C). Less than 1% of the cells generated from the non-induced population expressed cTnT (−Dox/−Dox, FIG. 3C). […]

[3] = test system: posterior primitive streak explants; experiment: E7.5 primitive streak explant cultures; assay type: cell-based, mouse; conditions: inhibitor 10 μM; 5 days of culture
Procedure: Female swiss webster mice (Taconic) were mated with male GFP-Bry^+/− mice described by Huber et al., (2004) Nature 432:625-630. Pregnant mice were sacrificed 7.5 days after mating and the embryos were isolated. Dissections were performed under a Leica MZFLIII fluorescence dissecting stereomicrosope to visualize the GFP expression in the primitive streak (PS). Using tungsten needles (Fine Science tools), the PS of GFP-Bry^+/− embryos were isolated and separated into posterior and anterior regions. Individual anterior and posterior PS pieces were plated in gelatin-coated 96-well dishes with medium for cardiac cultures. γ-Secretase inhibitor at 10 μM or a corresponding volume of DMSO was included in the cultures. Medium was changed everyday to provide fresh inhibitor. After 3-5 days, the explants were scored for the presence of contracting foci and harvested for gene expression analysis.
When isolated PPS are plated in the cardiac cultures contracting cardiomyocytes can be detected within 3 to 5 days. To investigate whether Notch signalling is required for the development of the cardiomyocyte lineage from embryo-derived tissues, PPSs were cultured in the presence or absence of γ-secretase inhibitor and then analyzed for the development of contracting cells and for the expression of cardiac genes. […]

[4] = test system: Flk-1+ cells from Bry-GFP ES cells on OP9-DL1 cells; experiment: Culture of Flk-1+ cells on Dll-1 expressing OP9 stromal cells; assay type: cell-based; conditions: inhibitor 5 μM; 3 days of culture
Procedure: OP9-DL1 cells described by Schmitt et al. (2004) Nat. Immunol. 5:410-417 were cultured in a 24-well plate and irradiated before use. Day 3.25 EB-derived Flk-1^+ cells (3×10^4 per well) were seeded onto OP9 cells in the same medium used for the cardiac cultures. γ-Secretase inhibitor X (dissolved in DMSO) at 5 μM or a corresponding volume of DMSO was included in the cultures. Medium was changed everyday to supply fresh inhibitor. After 3 days of culture, the cells were harvested and subjected to flow oytometric analysis to determine the number of Troponin T-positive cells.
Following 3 days of culture, areas of contracting cells were detected on the OP9 stromal cells, with approximately 24% of the cells expressing cTnT (FIG. 6A).

[5] = test system: GFP-Bry+/Flk-1- fraction from GFP-Bry/Ainv-Notch4 ES cells; experiment: Cardiac assay of reaggregated GFP-Bry+/Flk-1- cells; assay type: cell-based
Procedure: as §1
Cardiac potential has been mapped to the Flk-1^− fraction of brachytury-expressing mesoderm (GFP-Bry^+/Flk-1^−) at early singes of EB development (Kouskoff et al., supra). To investigate the role of Notch4 during cardiac differentiation of this mesoderm, the GFP cDNA was targeted to the brachyury locus of Ainv cells to enable the overexpression of Notch4 in the GFP-Bry^+/Flk-1^− population. The GFP-Bry^+/Flk-1^− fraction was isolated from clay 3.25 EBs derived from the GFP-Bry/Ainv-Notch4 ES cells, reaggregated for 1 day and the resultant aggregates plated in cardiac cultures. γ-Secretase inhibitor or Dox was added to the cells either during the reaggregation step or to the cardiac cultures to further define the stage specific effects of Notch4. Three days following differentiation of the aggregates in the cardiac cultures, the proportion of cTnT-positive cells and the expression of cardiac genes were analyzed (FIG. 7). […] As expected, this population expressed the spectrum of cardiac genes. Induction of Notch4 during the reaggregation stage (+Dox/−Dox) enhanced cardiomyocyte development over that observed in the control cultures (FIG. 7C). […]

[6] = +Dox+inhibitor/-Dox, inhibitor 5 μM during the reaggregation step
[7] = inhibitor during the aggregation stage (+I/-I)

| Compound | Ainv-Notch4 ES cells expressing Notch4 (HA expression) (Ainv-Notch4 ES cells) [%] | mixed colonies that generated contracting cells ([1]; Dox exposure limited to 24 hours, replated into cardiac cultures) [%] | compact colonies that generated contracting cells ([1]; colonies formed in presence of Dox, picked at day 7, 2 to 7 days in cardiac cultures) | cell population expressing cTnT ([2]; +Dox/-Dox, pooled aggregates, 2 days in cardiac cultures) | aggregates containing contracting cells ([2]; Flk-1+ cells from day 4 EBs, Dox 24 hours) [%] | colony type (blast vs compact colonies) ([1]; inhibitor 5 μM together with Dox 0.5 μg/ml, 4 days) | PS explants that generated contracting cells [3] | expression of cardiac genes in explants [3] | cardiomyocyte development (cTnT+ cells) [4] | expression of cardiac genes [2, 6] | generation of contracting cells [2, 6] | proportion of cTnT-expressing population compared to control ([5]; inhibitor added to the cardiac cultures (-I/+I)) | development of cTnT-positive contracting cells [5, 7] | expression levels of the cardiac genes [5, 7] |
| --- | --- | --- | --- | --- | --- | --- | --- | --- | --- | --- | --- | --- | --- | --- |
| C[C@H]1c2cccc(O)c2C(=O)C2=C(O)[C@]3(O)C(=O)C(C(N)=O)=C(O)[C@@H](N(C)C)[C@@H]3[C@@H](O)[C@@H]21 [Dox, doxycycline] | 90 | 45 | Approximately 70% | greater than 60% | 25 | – | – | – | – | – | – | – | – | – |
| CC(C)C[C@H](NC(=O)[C@H](Cc1ccccc1)C[C@@H](O)[C@H](Cc1ccccc1)NC(=O)OC(C)(C)C)C(=O)N[C@@H](Cc1ccccc1)C(N)=O [γ-secretase inhibitor] | – | – | – | – | – | reversal back to blast colonies | Less than 10% | inhibited in some but not all of the explants | inhibited | inhibited | inhibited | modestly increased | suppressed | reduced |
